In US20110178064A1, “SPIRO CONDENSED […] DERIVATIVES FOR USE AS ANTIBACTERIAL” (A[…]&D, priority 2007, published 2011):
pIC50: −log10 of the molar value.

Target: Escherichia coli DNA gyrase A/B tetramer (Escherichia coli, UniProt P0AES4+P0AES6)
Assay: DNA gyrase supercoiling activity fluorescence polarisation assay
Format: biochemical
Protocol: The supercoiling reactions may be quenched by the addition of 10 microliters/well of 40 nM oligodeoxynucleotide probe in 3× triplex-forming buffer consisting of 150 mM NaCl, and 150 mM sodium acetate at pH 3.5. The oligodeoxynucleotide probe may be 5′-BODIPY-FL-labeled […]. After 60 minutes, the fluorescence anisotropy of the BODIPY-FL may be measured in a Tecan Ultra plate reader, using 485 nm excitation and 535 nm emission filters equipped with polarizers. The IC50 may be determined by nonliner regression using two control reactions. The first contains no test compound but 0.8% DMSO (100% activity) while the second control reaction contains 5 uM Ciprofloxacin and 0.8% DMSO (0% activity).

Chain of Escherichia coli DNA gyrase A/B tetramer (P0AES4 whole entry, one chain of several): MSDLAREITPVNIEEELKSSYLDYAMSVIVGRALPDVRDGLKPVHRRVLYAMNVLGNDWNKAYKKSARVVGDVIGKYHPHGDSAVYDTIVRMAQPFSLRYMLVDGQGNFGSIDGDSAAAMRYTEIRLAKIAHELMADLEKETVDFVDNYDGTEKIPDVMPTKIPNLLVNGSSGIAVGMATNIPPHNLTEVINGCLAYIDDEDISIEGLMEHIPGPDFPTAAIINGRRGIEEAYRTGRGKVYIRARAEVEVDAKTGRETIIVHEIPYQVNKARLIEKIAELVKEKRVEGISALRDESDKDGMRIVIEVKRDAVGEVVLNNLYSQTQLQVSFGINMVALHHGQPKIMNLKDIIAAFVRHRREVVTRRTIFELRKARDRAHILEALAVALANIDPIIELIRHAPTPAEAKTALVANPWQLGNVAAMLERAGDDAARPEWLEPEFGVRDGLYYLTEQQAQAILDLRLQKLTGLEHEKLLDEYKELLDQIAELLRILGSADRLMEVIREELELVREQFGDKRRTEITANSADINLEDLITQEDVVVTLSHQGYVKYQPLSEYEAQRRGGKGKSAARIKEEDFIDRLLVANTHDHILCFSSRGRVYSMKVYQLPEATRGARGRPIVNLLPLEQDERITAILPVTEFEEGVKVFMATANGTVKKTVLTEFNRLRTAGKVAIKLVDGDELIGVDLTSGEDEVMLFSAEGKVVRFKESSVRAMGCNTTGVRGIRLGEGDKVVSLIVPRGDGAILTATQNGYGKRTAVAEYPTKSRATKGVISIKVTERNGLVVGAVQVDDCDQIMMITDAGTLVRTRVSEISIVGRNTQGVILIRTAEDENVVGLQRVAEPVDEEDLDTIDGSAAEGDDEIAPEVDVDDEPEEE

Row | Compound | pIC50
1 | Cc1noc(C)c1-c1cc2c(cn1)N1C[C@@H](C)O[C@@H](C)[C@@H]1C1(C2)C(=O)NC(=O)NC1=O (relative stereo) [Example 64, (6aS,7S,9R)-rel-3-(3,5-Dimethylisoxazol-4-yl)-7,9-dimethyl-6a,7,9,10-tetrahydro-2′H,5H-spiro[1,4-oxazino[4,3-a][1,7]naphthyridine-6,5′-pyrimidine]-2′,4′,6′(1′H,3′H)-trione] | < 4.08
2 | C[C@@H]1CN2c3cnc(-c4ccncc4)cc3CC3(C(=O)NC(=O)NC3=O)[C@H]2[C@H](C)O1 (relative stereo) [Example 65, (6aS,7S,9R)-rel-7,9-Dimethyl-3-(pyridin-4-yl)-6a,7,9,10-tetrahydro-2′H,5H-spiro[1,4-oxazino[4,3-a][1,7]naphthyridine-6,5′-pyrimidine]-2′,4′,6′(1′H,3′H)-trione] | < 5.00
3 | C[C@@H]1CN2c3cnc(-c4cnn(C)c4)cc3CC3(C(=O)NC(=O)NC3=O)[C@H]2[C@H](C)O1 (relative stereo) [Example 66, (6aS,7S,9R)-rel-7,9-dimethyl-3-(1-methyl-1H-pyrazol-4-yl)-6a,7,9,10-tetrahydro-2′H,5H-spiro[1,4-oxazino[4,3-a][1,7]naphthyridine-6,5′-pyrimidine]-2′,4′,6′(1′H,3′H)-trione] | < 4.08
4 | C[C@@H]1CN2c3ccc(-c4cc5ccccc5o4)nc3CC3(C(=O)NC(=O)NC3=O)[C@H]2[C@H](C)O1 (relative stereo) [Example 68, (2R,4S,4aS)-rel-8-(1-Benzofuran-2-yl)-2,4-dimethyl-1,2,4,4a-tetrahydro-2′H,6H-spiro[1,4-oxazino[4,3-a][1,5]naphthyridine-5,5′-pyrimidine]-2′,4′,6′(1′H,3′H)-trione] | 5.10
5 | C[C@@H]1CN2c3ccc(-c4ccnn4C)nc3CC3(C(=O)NC(=O)NC3=O)[C@H]2[C@H](C)O1 (relative stereo) [Example 70, (2R,4S,4aS)-rel-2,4-Dimethyl-8-(1-methyl-1H-pyrazol-5-yl)-1,2,4,4a-tetrahydro-2′H,6H-spiro[1,4-oxazino[4,3-a][1,5]naphthyridine-5,5′-pyrimidine]-2′,4′,6′(1′H,3′H)-trione] | 5.52
6 | COc1ccncc1-c1ccc2c(n1)CC1(C(=O)NC(=O)NC1=O)[C@H]1[C@H](C)O[C@H](C)CN21 (relative stereo) [Example 71, (2R,4S,4aS)-rel-8-(4-Methoxypyridin-3-yl)-2,4-dimethyl-1,2,4,4a-tetrahydro-2′H,6H-spiro[1,4-oxazino[4,3-a][1,5]naphthyridine-5,5′-pyrimidine]-2′,4′,6′(1′H,3′H)-trione] | 4.80
7 | C[C@@H]1CN2c3ccc(-c4cncnc4)nc3CC3(C(=O)NC(=O)NC3=O)[C@H]2[C@H](C)O1 (relative stereo) [Example 73, (2R,4S,4aS)-rel-2,4-Dimethyl-8-(pyrimidin-5-yl)-1,2,4,4a-tetrahydro-2′H,6H-spiro[1,4-oxazino[4,3-a][1,5]naphthyridine-5,5′-pyrimidine]-2′,4′,6′(1′H,3′H)-trione] | 5.52
8 | C[C@@H]1CN2c3ccc(-c4cccnc4)nc3CC3(C(=O)NC(=O)NC3=O)[C@H]2[C@H](C)O1 (relative stereo) [Example 74, (2R,4S,4aS)-rel-2,4-Dimethyl-8-(pyridin-3-yl)-1,2,4,4a-tetrahydro-2′H,6H-spiro[1,4-oxazino[4,3-a][1,5]naphthyridine-5,5′-pyrimidine]-2′,4′,6′(1′H,3′H)-trione] | 5.40
9 | C[C@@H]1CN2c3ccc(-c4cccc5cccnc45)nc3CC3(C(=O)NC(=O)NC3=O)[C@H]2[C@H](C)O1 (relative stereo) [Example 75, (2R,4S,4aS)-rel-2,4-Dimethyl-8-(quinolin-8-yl)-1,2,4,4a-tetrahydro-2′H,6H-spiro[1,4-oxazino[4,3-a][1,5]naphthyridine-5,5′-pyrimidine]-2′,4′,6′(1′H,3′H)-trione] | 5.10
10 | C[C@@H]1CN2c3ccc(-c4ccoc4)nc3CC3(C(=O)NC(=O)NC3=O)[C@H]2[C@H](C)O1 (relative stereo) [Example 76, (2R,4S,4aS)-rel-8-(Furan-3-yl)-2,4-dimethyl-1,2,4,4a-tetrahydro-2′H,6H-spiro[1,4-oxazino[4,3-a][1,5]naphthyridine-5,5′-pyrimidine]-2′,4′,6′(1′H,3′H)-trione] | 4.68
11 | Cc1noc(C)c1-c1ccc2c(n1)CC1(C(=O)NC(=O)NC1=O)[C@H]1[C@H](C)O[C@H](C)CN21 (relative stereo) [Example 77, (2R,4S,4aS)-rel-8-(3,5-Dimethylisoxazol-4-yl)-2,4-dimethyl-1,2,4,4a-tetrahydro-2′H,6H-spiro[1,4-oxazino[4,3-a][1,5]naphthyridine-5,5′-pyrimidine]-2′,4′,6′(1′H,3′H)-trione] | 5.10
12 | C[C@@H]1CN2c3ccc(-c4ccncc4)nc3CC3(C(=O)NC(=O)NC3=O)[C@H]2[C@H](C)O1 (relative stereo) [Example 78, (2R,4S,4aS)-rel-2,4-dimethyl-8-(pyridin-4-yl)-1,2,4,4a-tetrahydro-2′H,6H-spiro[1,4-oxazino[4,3-a][1,5]naphthyridine-5,5′-pyrimidine]-2′,4′,6′(1′H,3′H)-trione] | 5.70
13 | C[C@@H]1CN2c3ccc(-c4cnn(C)c4)nc3CC3(C(=O)NC(=O)NC3=O)[C@H]2[C@H](C)O1 (relative stereo) [Example 79, (2R,4S,4aS)-rel-2,4-Dimethyl-8-(1-methyl-1H-pyrazol-4-yl)-1,2,4,4a-tetrahydro-2′H,6H-spiro[1,4-oxazino[4,3-a][1,5]naphthyridine-5,5′-pyrimidine]-2′,4′,6′(1′H,3′H)-trione] | 4.77
14 | C[C@@H]1CN2c3ccc(-c4cnccn4)nc3CC3(C(=O)NC(=O)NC3=O)[C@H]2[C@H](C)O1 (relative stereo) [Example 80, (2R,4S,4aS)-rel-2,4-Dimethyl-8-(pyrazin-2-yl)-1,2,4,4a-tetrahydro-2′H,6H-spiro[1,4-oxazino[4,3-a][1,5]naphthyridine-5,5′-pyrimidine]-2′,4′,6′(1′H,3′H)-trione] | < 5.30
15 | C[C@@H]1CN2c3ncc(-c4ccc(F)cc4)cc3CC3(C(=O)NC(=O)NC3=O)[C@H]2[C@H](C)O1 (relative stereo) [Example 81, (6aS,7S,9R)-rel-3-(4-Fluorophenyl)-7,9-dimethyl-6a,7,9,10-tetrahydro-2′H,5H-spiro[1,4-oxazino[4,3-a][1,8]naphthyridine-6,5′-pyrimidine]-2′,4′,6′(1′H,3′H)-trione] | 5.10
16 | Cc1ccccc1-c1cnc2c(c1)CC1(C(=O)NC(=O)NC1=O)[C@H]1[C@H](C)O[C@H](C)CN21 (relative stereo) [Example 82, (6aS,7S,9R)-rel-7,9-Dimethyl-3-(2-methylphenyl)-6a,7,9,10-tetrahydro-2′H,5H-spiro[1,4-oxazino[4,3-a][1,8]naphthyridine-6,5′-pyrimidine]-2′,4′,6′(1′H,3′H)-trione] | < 4.08
17 | COc1ccccc1-c1cnc2c(c1)CC1(C(=O)NC(=O)NC1=O)[C@H]1[C@H](C)O[C@H](C)CN21 (relative stereo) [Example 83, (6aS,7S,9R)-rel-3-(2-Methoxyphenyl)-7,9-dimethyl-6a,7,9,10-tetrahydro-2′H,5H-spiro[1,4-oxazino[4,3-a][1,8]naphthyridine-6,5′-pyrimidine]-2′,4′,6′(1′H,3′H)-trione] | < 4.08
18 | C[C@@H]1CN2c3ncc(-c4ccccc4)cc3CC3(C(=O)NC(=O)NC3=O)[C@H]2[C@H](C)O1 (relative stereo) [Example 84, (6aS,7S,9R)-rel-7,9-Dimethyl-3-phenyl-6a,7,9,10-tetrahydro-2′H,5H-spiro[1,4-oxazino[4,3-a][1,8]naphthyridine-6,5′-pyrimidine]-2′,4′,6′(1′H,3′H)-trione] | 5.15
19 | C[C@@H]1CN2c3ccc(-c4nccs4)nc3CC3(C(=O)NC(=O)NC3=O)[C@H]2[C@H](C)O1 (relative stereo) [Example 85, (2R,4S,4aS)-rel-2,4-Dimethyl-8-(1,3-thiazol-2-yl)-1,2,4,4a-tetrahydro-2′H,6H-spiro[1,4-oxazino[4,3-a][1,5]naphthyridine-5,5′-pyrimidine]-2′,4′,6′(1′H,3′H)-trione] | 5.10
20 | C[C@@H]1CN2c3ncc(-c4nc5ccccc5s4)cc3CC3(C(=O)NC(=O)NC3=O)[C@H]2[C@H](C)O1 (relative stereo) [Example 87, (6aS,7S,9R)-rel-3-(1,3-Benzothiazol-2-yl)-7,9-dimethyl-6a,7,9,10-tetrahydro-2′H,5H-spiro[1,4-oxazino[4,3-a][1,8]naphthyridine-6,5′-pyrimidine]-2′,4′,6′(1′H,3′H)-trione] | 5.40
21 | C[C@@H]1CN2c3ccc(-c4nc5ccccc5s4)nc3CC3(C(=O)NC(=O)NC3=O)[C@H]2[C@H](C)O1 (relative stereo) [Example 88, (2R,4S,4aS)-rel-8-(1,3-Benzothiazol-2-yl)-2,4-dimethyl-1,2,4,4a-tetrahydro-2′H,6H-spiro[1,4-oxazino[4,3-a][1,5]naphthyridine-5,5′-pyrimidine]-2′,4′,6′(1′H,3′H)-trione] | 5.70
22 | C[C@@H]1CN2c3cnc(-c4nc5ccccc5s4)cc3CC3(C(=O)NC(=O)NC3=O)[C@H]2[C@H](C)O1 (relative stereo) [Example 89, (6aS,7S,9R)-rel-3-(1,3-benzothiazol-2-yl)-7,9-dimethyl-6a,7,9,10-tetrahydro-2′H,5H-spiro[1,4-oxazino[4,3-a][1,7]naphthyridine-6,5′-pyrimidine]-2′,4′,6′(1′H,3′H)-trione] | 4.96
23 | C[C@@H]1CN2c3ncc(-c4cncn4C)cc3CC3(C(=O)NC(=O)NC3=O)[C@H]2[C@H](C)O1 (relative stereo) [Example 90, (6aS,7S,9R)-rel-7,9-Dimethyl-3-(1-methyl-1H-imidazol-5-yl)-6a,7,9,10-tetrahydro-2′H,5H-spiro[1,4-oxazino[4,3-a][1,8]naphthyridine-6,5′-pyrimidine]-2′,4′,6′(1′H,3′H)-trione] | 4.68
